Results taken from patent publication US9637770B2, “Methods and devices for handling biofouling” (MEKOROT WATER COMPANY, LTD., priority 2011, dated 2017).

Columns and labels:
[1] = test system: microorganisms; experiment: Biofouling index on the biosensor after 24 h circulation of water dosed with hypochlorite; format: cell-based
Protocol: The change in color on the biosensor was determined for each water sample in six repetitions as described above.
The biofouling Index was determined as follows: Biofouling Index=100×PPP×(1−PPP)+(100−LL)×PPP
For simplicity, the Biofouling Index was translated into a biofouling score, A, B, C, . . . F, according to ranges of biofouling, with lower biofouling range, representing low biofouling identified as score A. The correlating score is identified in Table 7.
Hypochlorite was dissolved to obtain a stock solution of 140 mg/L. Dilutions of this stock solution were as detailed in Table 9. The dilutions were injected into the water circulating in the biosensing apparatus and the total chlorine concentration was measured for each dilution. As control, no hypochlorite was added.
Circulation conditions: flow: 90 ml/min; circulation container volume: 2 L; duration of circulation: 24 hours at a temperature of 35° C.

[2] = test system: biofilm on RO membrane; experiment: Biofilm grown on RO membranes for 15 days with input water containing chloramines, measured with CLSM; format: cell-based
Protocol: Biofilm was allowed to grow on the surface of miniature RO membranes (ESNA1-LF, Hydranautics, USA), equipped within a device having the membrane held within a closed chamber, the chamber comprising a feed inlet, brine outlet and permeate outlet for fluids, where the pressure obtain from the desalination pilot pressurized flows.
For biofilm analysis a 5×5 mm membrane segment was taken from each of the tested membranes. Each segment was inserted into an Eppendorf test tube comprising 2 ml 0.24% sterilized TRIS solution (pH 7.2) and the test tubes were turned upside down gently several time. […]
The staining of the RO membranes with SYTO9 and Tetramethylrhodamine, provided information about the presence and quantity of microorganisms and the extracellular polymeric substance (EPS), respectively. The CLSM images were scanned and analyzed with PHLIP software (http://sourceforge.net/projects/phlip/) which enabled quantization of CLSM data with respect to the biovolume of the biofilm. […]
In addition, water from sampling Point No. 3 (SP3) was allowed to flow through miniature membrane facilities (as described above) in parallel, for 15 days in order to allow growth of biofilm on the surface of the membranes. After 15 days, the membranes were treated and analyzed as described above in order to determine the resulting biovolume. […]

[3] = test system: biofilm on the membrane surface; experiment: Normalized permeate flow of the pilot plant with low dose of chloramines
Protocol: FIG. 7 provides a graph showing the normalized permeate flow as a function of operation time for a pilot plant with low dose of chloramines as determined with the bio-sensor test. Also examined was the effect of preventing the development of biofilm on the membrane surface when 4.2 mg/L hypochlorite were added.

OCl [Sodium hypochlorite, sodium hypochlorite]
Amount of hypochlorite sufficient to prevent biofouling (close to zero biofouling) ([1]; 24 h circulation, 35° C.): 4.2 mg/L
Biofouling index after addition of hypochlorite (drop from control level C) ([1]; all tested amounts of hypochlorite, control C, 24 h circulation): B (biofouling index <6)
Biofouling index ([1]; sodium hypochlorite 0.7 mg/l, total chloramines 0.17 mg/l, 24 h circulation, 35° C.): B (biofouling index <6)
Biofouling index ([1]; sodium hypochlorite 1.4 mg/l, total chloramines 0.29 mg/l, 24 h circulation, 35° C.): B (biofouling index <6)
Biofouling index ([1]; sodium hypochlorite 2.1 mg/l, total chloramines 0.45 mg/l, 24 h circulation, 35° C.): B (biofouling index <6)
Biofouling index ([1]; sodium hypochlorite 2.8 mg/l, total chloramines 0.94 mg/l, 24 h circulation, 35° C.): B (biofouling index <6)
Biofouling index ([1]; sodium hypochlorite 2.8 mg/l, total chloramines 1.0 mg/l, 24 h circulation, 35° C.): B (biofouling index <6)
Biofouling index ([1]; sodium hypochlorite 4.2 mg/l, total chloramines 1.42 mg/l, 24 h circulation, 35° C.): B (biofouling index <6)
Biofouling index ([1]; sodium hypochlorite 4.2 mg/l, total chloramines 1.48 mg/l, 24 h circulation, 35° C.): B (biofouling index <6)
Biofouling index ([1]; sodium hypochlorite 4.6 mg/l, total chloramines 1.63 mg/l, 24 h circulation, 35° C.): B (biofouling index <6)
Biofouling index ([1]; sodium hypochlorite 5.6 mg/l, total chloramines 1.86 mg/l, 24 h circulation, 35° C.): B (biofouling index <6)
Biofouling index (numerical, FIG. 4) ([1]; total chlorine concentration of 1.4 mg/L and more): close to zero
Biovolume of biofilm on the membrane relative to that without hypochlorite ([2]; 4.2 mg/L hypochlorite (1.5 mg/L chloramines), injected 4 hours per day, Stage I input water): about ⅕
Thickness of biofilm relative to that in the absence of chloramines ([2]; hypochlorite added (chloramines)): about ⅕
Effect on normalized permeate flow ([3]; 4.2 mg/L hypochlorite, 320 hours, Stage I, Stage II and Stage III): no decrease in permeate flow
Effect on biofouling on the membranes ([3]; treatment with hypochlorite, data not shown): reduced biofouling on the membranes
